Test results from ChEMBL document CHEMBL1134163, “Design and synthesis of tricyclic derivatives as high density lipoprotein cholesterol enhancers” (2001).

Test system: Rattus norvegicus
Assay: Average percentage HDLC change in 6 cholesterol cholic acid-fed male rats (versus control) after treatment for 8 days at a dose of 100 mg/kg/day
Format: functional

Compound: C[C@@H]1CN2C(=O)c3ccccc3[C@@](O)(c3ccc(F)cc3)C2=N1
- HDL-C change: 105%

Compound: CC1(C)CN2C(=O)c3ccccc3C(O)(c3ccccc3)C2=N1 (stereo not drawn)
- HDL-C change: 55%

Compound: C[C@@H]1CN2C(=O)c3ccccc3C(O)(c3ccc(F)cc3)C2=N1 (single isomer, unassigned)
- HDL-C change: 38%

Compound: O=C1c2ccccc2C(O)(c2ccc(F)cc2)C2=NC3(CCCC3)CN12 (stereo not drawn)
- HDL-C change: 21%

Compound: O=C1c2ccccc2C(O)(c2ccc(F)cc2)C2=NCCN12 (stereo not drawn)
- HDL-C change: 0%

Compound: O=C1c2ccccc2C(O)(c2ccc(F)cc2)C2=NCCCN12 (stereo not drawn)
- HDL-C change: 22%

Compound: CC1(C)CN2C(=O)c3ccccc3C(O)(c3ccc(F)cc3)C2=N1 (stereo not drawn)
- HDL-C change: 90%

Compound: O=C1c2ncccc2C(O)(c2ccc(Cl)cc2)C2=NCCN12 (stereo not drawn)
- HDL-C change: 49%
